In US20070111265A1, “Ligands for mineralocorticoid receptor (MR) and methods for screening for or designing MR ligands” (Van Andel Research Institute, priority 2005, published 2007):
Numbering of substitutions follows the chain as printed. “Also recorded” adds a separate entry of the source.

Tests used:
Experiment in all cases: MMTV luciferase reporter assay in Cos-7 cells
Type in all cases: cell-based
GR Q642L/P637S = molecular target: T1, GR Q642L/P637S (Homo sapiens, UniProt P04150, P637S/Q642L); settings: additional mutation of P637S
T1 construct: reverse mutations in the full length GR receptor (P637S and Q642L); expressed in transfected cells; host or cells: Cos-7
T1 sequence (P04150 1-777 P637S/Q642L): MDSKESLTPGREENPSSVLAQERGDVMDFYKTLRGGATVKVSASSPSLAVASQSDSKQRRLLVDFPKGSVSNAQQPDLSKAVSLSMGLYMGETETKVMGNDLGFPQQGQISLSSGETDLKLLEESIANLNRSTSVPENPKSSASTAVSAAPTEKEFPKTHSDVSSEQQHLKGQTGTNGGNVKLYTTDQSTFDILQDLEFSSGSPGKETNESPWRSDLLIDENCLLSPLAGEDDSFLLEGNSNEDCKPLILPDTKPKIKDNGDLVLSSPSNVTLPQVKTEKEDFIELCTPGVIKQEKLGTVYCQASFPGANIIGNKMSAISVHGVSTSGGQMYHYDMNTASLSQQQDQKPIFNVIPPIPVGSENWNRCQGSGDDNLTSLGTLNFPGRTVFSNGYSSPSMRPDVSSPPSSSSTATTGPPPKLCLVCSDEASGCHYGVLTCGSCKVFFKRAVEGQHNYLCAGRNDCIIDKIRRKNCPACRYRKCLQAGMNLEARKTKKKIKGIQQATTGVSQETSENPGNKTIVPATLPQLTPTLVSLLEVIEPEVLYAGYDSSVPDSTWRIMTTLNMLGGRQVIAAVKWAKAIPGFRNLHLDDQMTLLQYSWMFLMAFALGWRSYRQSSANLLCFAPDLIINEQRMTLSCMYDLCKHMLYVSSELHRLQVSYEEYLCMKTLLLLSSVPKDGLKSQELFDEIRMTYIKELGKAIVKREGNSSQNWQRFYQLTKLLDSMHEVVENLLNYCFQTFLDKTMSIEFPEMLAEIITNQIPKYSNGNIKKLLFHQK
Method: (§1) Cos-7 cells were maintained in DMEM containing 10% fetal bovine serum (FBS) and were transiently transfected using Lipofectamine 2000 (Invitrogen). […] Cells were transfected in Opti-MEM with 400 ng of MMTV-Luc reporter plasmid and 400 ng of receptor expression vector (pRS vector) encoding full-length GR and MR respectively (ATCC). […] Luciferase data were normalized to Renilla activity as an internal control.
(§2) To validate the role of the key MR pocket residues in hormone recognition, the inventors mutated S843 and L848 to the corresponding GR residues (S843P and L848Q) within the context of the full length wild type receptor. […] We also performed reverse mutations in the full length GR receptor (P637S and Q642L) and tested them in the same MMTV reporter.

MR L848Q/S843P = molecular target: T2, MR L848Q/S843P (Homo sapiens, UniProt P08235, L848Q/S843P); settings: double mutation
T2 construct: (S843P and L848Q) within the context of the full length wild type receptor; expressed in transfected cells; host or cells: Cos-7
T2 sequence (P08235 1-984 S843P/L848Q): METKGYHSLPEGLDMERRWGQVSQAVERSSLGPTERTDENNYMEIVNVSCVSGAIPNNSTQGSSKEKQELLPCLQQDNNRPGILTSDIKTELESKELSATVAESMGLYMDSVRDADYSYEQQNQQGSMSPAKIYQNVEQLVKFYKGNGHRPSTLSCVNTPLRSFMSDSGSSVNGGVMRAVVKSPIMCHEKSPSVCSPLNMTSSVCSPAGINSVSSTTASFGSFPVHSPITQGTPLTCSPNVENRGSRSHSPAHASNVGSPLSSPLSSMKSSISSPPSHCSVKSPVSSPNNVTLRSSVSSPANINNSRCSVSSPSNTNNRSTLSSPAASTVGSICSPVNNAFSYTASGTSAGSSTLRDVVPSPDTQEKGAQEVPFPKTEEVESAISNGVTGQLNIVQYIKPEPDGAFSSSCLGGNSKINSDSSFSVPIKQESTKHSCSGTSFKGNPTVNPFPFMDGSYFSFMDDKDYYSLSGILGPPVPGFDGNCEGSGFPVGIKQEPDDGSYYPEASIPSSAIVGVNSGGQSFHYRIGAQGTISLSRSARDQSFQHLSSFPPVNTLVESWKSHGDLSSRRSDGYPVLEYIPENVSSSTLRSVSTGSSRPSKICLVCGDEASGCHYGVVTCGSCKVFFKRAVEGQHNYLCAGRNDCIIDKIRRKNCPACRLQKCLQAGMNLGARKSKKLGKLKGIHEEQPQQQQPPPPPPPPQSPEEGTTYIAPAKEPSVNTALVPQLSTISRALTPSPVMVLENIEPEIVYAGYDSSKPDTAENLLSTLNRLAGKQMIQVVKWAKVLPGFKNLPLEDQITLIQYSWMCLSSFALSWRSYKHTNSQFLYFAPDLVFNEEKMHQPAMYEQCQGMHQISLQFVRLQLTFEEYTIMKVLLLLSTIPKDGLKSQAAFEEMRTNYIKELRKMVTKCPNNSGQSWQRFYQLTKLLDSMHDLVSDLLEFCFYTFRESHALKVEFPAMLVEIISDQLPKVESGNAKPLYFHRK
Method: as §1, §2

GR Q642L = molecular target: T3, GR Q642L (Homo sapiens, UniProt P04150, Q642L); settings: Cos-7, MMTV-Luc
T3 construct: reverse mutations in the full length GR receptor (P637S and Q642L); expressed in transfected cells; host or cells: Cos-7
T3 sequence (P04150 1-777 Q642L): T1 sequence (P04150 1-777 P637S/Q642L) with S637P
Method: as §1, §2

SMILES | activation of GR Q642L/P637S (GR Q642L/P637S) | activation of MR L848Q/S843P (MR L848Q/S843P) | activation of GR Q642L (GR Q642L)
C[C@]12C[C@H](O)[C@H]3[C@@H](CCC4=CC(=O)CC[C@@]43C)[C@@H]1CC[C@@H]2C(=O)CO [corticosterone] | severely affects activation | totally abolished; also recorded: severely affects activation | remained intact
C[C@]12CCC(=O)C=C1CC[C@@H]1[C@@H]2[C@@H](O)C[C@@]2(C)[C@H]1CC[C@]2(O)C(=O)CO [cortisol] | severely affects activation | totally abolished; also recorded: severely affects activation | completely abolished activation; also recorded: inability of cortisol to activate
